Experimental findings from patent US6380215B1, “Beta-alanine derivative and a process for the preparation thereof” (Fujisawa Pharmaceutical Co., Ltd, priority 1993, dated 2002) are described below.

As usually defined, the melting point is the temperature, or range, at which the solid turns liquid.

The first data set concerns platelets in platelet rich plasma (PRP), aggregation induced by ADP. Kind of data set: Effect on Platelet Aggregation Induced by Adenosine Diphosphate (ADP). Type of data set: cell-based. To be noted: dose required for complete inhibition of platelet aggregation; human PRP 3×10^8 platelets/ml, ADP final 2.5 μM, 37° C., aggregometer. As for the experimental part:
Test 1: Effect on Platelet Aggregation Induced by Adenosine Diphosphate (ADP)
Platelet rich plasma (PRP) which contains 3×10^8 platelets/ml was prepared from human blood. To the 225 μl of PRP, 25 μl of drug solution* was added, and then stirred for 2 minutes at 37° C. To the solution 5 μl of ADP (final 2.5 μM) was added as an aggregation inducer. Aggregation was measured by using an aggregometer (NBS HEMA-TRACER 801). Activity of inhibitor (test compound) was expressed as IC100 value i.e. dose required for complete inhibition of platelet aggregation.
Drug solution* — — — Test compound was dissolved in water.
In turn, `Cl.O=C(O)CCNC(=O)[C@@H]1CCCN(C(=O)CCC2CCNCC2)C1` [Example 21 (3), N-[(R)-1-{3-(4-piperidyl)propionyl}-3-piperidylcarbonyl]-β-alanine hydrochloride] had an IC100 of 1000 nM.

Tested on in another data set: not given
Assay: not given
Details: not given
On to `C[C@H](CC(=O)O)NC(=O)[C@@H]1CCCN(C(=O)CCC2CCNCC2)C1.Cl`, for which the melting point fell in the range of 105 to 108 °C.
The compound `COc1ccc(CCNC(=O)[C@H](CC(=O)O)NC(=O)[C@@H]2CCCN(C(=O)CCC3CCNCC3)C2)cc1.Cl` registered a melting point of 82 °C.
The same measure, in the same setting: under `Cl.O=C(O)CC(NC(=O)[C@@H]1CCCN(C(=O)CCC2CCNCC2)C1)c1ccccc1` (some centres unmarked) stands 67 °C; under `CCCCCC(=O)N[C@@H](CNC(=O)[C@@H]1CCCN(C(=O)CCC2CCNCC2)C1)C(=O)O.Cl`, 156 to 157 °C.
In turn, `Cl.O=C(O)CCNC(=O)C1CCCN(C(=O)CCC2CCNCC2)C1` (centres unmarked) showed a melting point of 70 to 72 °C.
`Cl.O=C(O)CCNC(=O)C1CCN(C(=O)CCC2CCNCC2)CC1`: the melting point lay in the range of 63 to 65 °C.
Same read-out and setting: with `Cl.O=C(O)CCNC(=O)CC1CCCN(C(=O)CC2CCNCC2)C1` (centres unmarked) the figure was 73 °C.
In turn, `Cl.O=C(O)CCNC(=O)CC1CCCN(C(=O)C=C2CCNCC2)C1` (centres unmarked) came in with a melting point of 63 °C.
`C#C[C@H](CC(=O)OCc1oc(=O)oc1C)NC(=O)[C@@H]1CCCN(C(=O)CCC2CCNCC2)C1.Cl` displayed a melting point of 70 °C.
On the same count and under the same terms, with `COC(=O)CCNC(=O)C1CCN(C(=O)CCC2CCN(C(=O)OC(C)(C)C)CC2)CC1` the figure was 79 °C; with `COC(=O)CCNC(=O)CC1CCCN(C(=O)C=C2CCN(C(=O)OC(C)(C)C)CC2)C1` (centres unmarked), 121 °C; with `COC(=O)C[C@H](N)C(=O)NC1CCCN(C(=O)CCC2CCN(C(=O)OCc3ccccc3)CC2)C1.Cl` (some centres unmarked), 75 °C.
Still for that read-out and setting: with `Cl.O=C(O)CCNC(=O)[C@@H]1CCCN(C(=O)CCC2CCNCC2)C1` [Example 21 (3), N-[(R)-1-{3-(4-piperidyl)propionyl}-3-piperidylcarbonyl]-β-alanine hydrochloride] the figure was 84 °C.
